Source: US10202361B2, “Pyridazinones as herbicides” (E I DU PONT DE NEMOURS AND COMPANY, priority 2014, dated 2019)
Read-outs that look alike come from different tables or passages of the source.

Tests used:
Type in all cases: in vivo
[1] = test system: barnyardgrass (Echinochloa crus-galli); test: Test A pre-/postemergence greenhouse herbicide test; details: Echinochloa crus-galli, 240 h, 0 to 100 scale (0 no effect, 100 complete control), approx. 10 d, read-out: Plant response rating, Barnyardgrass; for pest or weed control at 125 g/ha: 125 g ai/ha; for pest or weed control at 500 g/ha: 500 g ai/ha
Outline: (§1)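 Greenhouse pre- and postemergence treatment in loam/sand soil, test chemicals in non-phytotoxic solvent with surfactant; postemergence plants 2–10 cm, one- to two-leaf stage. Visual injury rated after approximately 10 d versus untreated controls, 0 (no effect) to 100 (complete control).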

corn (Zea mays) = test: as above; details: Zea mays, 240 h, 0 to 100 scale (0 no effect, 100 complete control), approx. 10 d; for Corn plant response rating (crop injury, 0 = no effect, 100 = complete kill) at 125 g/ha: 125 g ai/ha; for Corn plant response rating (crop injury, 0 = no effect, 100 = complete kill) at 500 g/ha: 500 g ai/ha
Outline: as §1

[2] = test system: crabgrass, Large (large crabgrass, Digitaria sanguinalis); test: as above; details: Digitaria sanguinalis, 240 h, 0 to 100 scale (0 no effect, 100 complete control), approx. 10 d, read-out: Plant response rating, Crabgrass, Large; for pest or weed control at 125 g/ha: 125 g ai/ha; for pest or weed control at 500 g/ha: 500 g ai/ha
Outline: as §1

[3] = test system: foxtail, giant (giant foxtail, Setaria faberii); test: as above; details: Setaria faberi, 240 h, 0 to 100 scale (0 no effect, 100 complete control), approx. 10 d, read-out: Plant response rating, Foxtail, Giant; for pest or weed control at 125 g/ha: 125 g ai/ha; for pest or weed control at 500 g/ha: 500 g ai/ha
Outline: as §1

[4] = test system: morningglory (Ipomoea spp.); test: as above; details: Ipomoea, post-emergence, 240 h, Postemergence, 0 to 100 scale (0 no effect, 100 complete control), approx. 10 d, read-out: Plant response rating, Morningglory
Outline: as §1

[5] = test system: pigweed (Amaranthus retroflexus); test: as above; details: Amaranthus retroflexus, 240 h, 0 to 100 scale (0 no effect, 100 complete control), approx. 10 d, read-out: Plant response rating, Pigweed; for pest or weed control at 125 g/ha: 125 g ai/ha; for pest or weed control at 500 g/ha: 500 g ai/ha
Outline: as §1

[6] = test system: velvetleaf (Abutilon theophrasti); test: as above; details: Abutilon theophrasti, 240 h, 0 to 100 scale (0 no effect, 100 complete control), approx. 10 d, read-out: Plant response rating, Velvetleaf; for pest or weed control at 125 g/ha: 125 g ai/ha; for pest or weed control at 500 g/ha: 500 g ai/ha
Outline: as §1

[7] = test system: wheat (Triticum aestivum); test: as above; details: Triticum aestivum, 240 h, 0 to 100 scale (0 no effect, 100 complete control), approx. 10 d, read-out: Plant response rating, Wheat; for plant injury at 125 g/ha: 125 g ai/ha; for plant injury at 500 g/ha: 500 g ai/ha
Outline: as §1

soybean (Glycine max) = test: Test C pre-/postemergence greenhouse herbicide test; details: Glycine max, Soybean, read-out: Plant response rating; for plant injury at 62 g/ha: 62 g ai/ha; for plant injury at 125 g/ha: 125 g ai/ha; for plant injury at 250 g/ha: 250 g ai/ha
Outline: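 Seeds in loam–sand blend sprayed preemergence, and 1- to 4-leaf plants (2–18 cm) sprayed postemergence, with compounds in non-phytotoxic solvent plus surfactant. Visual rating versus controls after 13–15 d in greenhouse, 0 (no effect) to 100 (complete control).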

[8] = test system: chickweed (common chickweed, Stellaria media); test: Test C postemergence greenhouse herbicide test

For COc1cc(=O)n(-c2ccc(F)cc2)nc1Cc1ccnc(C(F)(F)F)c1 [Compound 17, 2-(4-fluorophenyl)-5-methoxy-6-[[2-(trifluoromethyl)-4-pyridinyl]methyl]-3 (2H)-pyridazinone], the pest or weed control at 125 g/ha ([1]; post-emergence, Postemergence) was 80%, the pest or weed control at 500 g/ha ([1]; post-emergence, Postemergence) was 90% and the pest or weed control at 125 g/ha ([1]; pre-emergence, Preemergence) was 80%. For the same compound, the pest or weed control at 500 g/ha ([1]; pre-emergence, Preemergence) was 100%, the Corn plant response rating (crop injury, 0 = no effect, 100 = complete kill) at 125 g/ha (corn (Zea mays); post-emergence, Postemergence) was 60% and the Corn plant response rating (crop injury, 0 = no effect, 100 = complete kill) at 500 g/ha (corn (Zea mays); post-emergence, Postemergence) was 80%. For the same compound, the Corn plant response rating (crop injury, 0 = no effect, 100 = complete kill) at 125 g/ha (corn (Zea mays); pre-emergence, Preemergence) was 40%, the Corn plant response rating (crop injury, 0 = no effect, 100 = complete kill) at 500 g/ha (corn (Zea mays); pre-emergence, Preemergence) was 50% and the pest or weed control at 125 g/ha ([2]; post-emergence, Postemergence) was 90%. It also gave a pest or weed control at 500 g/ha ([2]; post-emergence, Postemergence) of 90%, a pest or weed control at 125 g/ha ([2]; pre-emergence, Preemergence) of 100% and a pest or weed control at 500 g/ha ([2]; pre-emergence, Preemergence) of 100%. It also gave a pest or weed control at 125 g/ha ([3]; post-emergence, Postemergence) of 90%, a pest or weed control at 500 g/ha ([3]; post-emergence, Postemergence) of 90% and a pest or weed control at 125 g/ha ([3]; pre-emergence, Preemergence) of 100%. The pest or weed control at 500 g/ha ([3]; pre-emergence, Preemergence) was 100%, the pest or weed control at 125 g/ha ([4]; 125 g ai/ha) was 100% and the pest or weed control at 500 g/ha ([4]; 500 g ai/ha) was 100%. For the same compound, the pest or weed control at 125 g/ha ([5]; post-emergence, Postemergence) was 100%, the pest or weed control at 500 g/ha ([5]; post-emergence, Postemergence) was 100% and the pest or weed control at 125 g/ha ([5]; pre-emergence, Preemergence) was 100%. It also gave a pest or weed control at 500 g/ha ([5]; pre-emergence, Preemergence) of 100%, a pest or weed control at 125 g/ha ([6]; post-emergence, Postemergence) of 100% and a pest or weed control at 500 g/ha ([6]; post-emergence, Postemergence) of 100%. For the same compound, the pest or weed control at 125 g/ha ([6]; pre-emergence, Preemergence) was 100%, the pest or weed control at 500 g/ha ([6]; pre-emergence, Preemergence) was 100% and the plant injury at 125 g/ha ([7]; post-emergence, Postemergence) was 60%. The plant injury at 500 g/ha ([7]; post-emergence, Postemergence) was 70%, the plant injury at 125 g/ha ([7]; pre-emergence, Preemergence) was 20% and the plant injury at 500 g/ha ([7]; pre-emergence, Preemergence) was 50%. For the same compound, the plant injury at 31 g/ha (soybean (Glycine max); post-emergence, Postemergence, 31 g ai/ha) was 80%, the plant injury at 62 g/ha (soybean (Glycine max); post-emergence, Postemergence) was 90% and the plant injury at 125 g/ha (soybean (Glycine max); post-emergence, Postemergence) was 90%. It also gave a plant injury at 250 g/ha (soybean (Glycine max); post-emergence, Postemergence) of 90%, a plant injury at 62 g/ha (soybean (Glycine max); pre-emergence, Preemergence) of 55% and a plant injury at 125 g/ha (soybean (Glycine max); pre-emergence, Preemergence) of 95%. For the same compound, the plant injury at 250 g/ha (soybean (Glycine max); pre-emergence, Preemergence) was 98%, the Plant response rating ([8]; 31 g ai/ha) was 70 and the Plant response rating ([8]; 62 g ai/ha) was 85. It also gave a Plant response rating ([8]; 125 g ai/ha) of 85 and a Plant response rating ([8]; 250 g ai/ha) of 95.
